The results in this text go back to ChEMBL document CHEMBL3046289, “Synthesis and in vitro antimicrobial activity of some newer quinazolinonesulfonamide linked hybrid heterocyclic entities derived from glycine” (2013).

In brackets after ≈: the same amount, converted by molar mass.

As usually defined, the MIC is the lowest concentration found to suppress growth.

Holding throughout (assay type): functional
One assay has as its system Candida albicans. The experiment in a line: Antifungal activity against Candida albicans MTCC 227 assessed as growth inhibition after 48 hr by broth microdilution method. The note with it: MTCC 227, 48 h.
For the next assay, the system named is Aspergillus niger. Nature of the assay: Antifungal activity against Aspergillus niger MTCC 282 assessed as growth inhibition after 48 hr by broth microdilution method. Conditions: MTCC 282, 48 h. (In general: Dilution methods test growth across graded concentrations, often in twofold steps.)
In the next assay the test system is Pseudomonas aeruginosa. Nature of the assay: Antibacterial activity against Pseudomonas aeruginosa MTCC 1688 assessed as growth inhibition after 24 hr by broth microdilution method. Conditions: MTCC 1688, 24 h.
In the next assay the test system is Staphylococcus aureus. Nature of the assay: Antibacterial activity against Staphylococcus aureus MTCC 2940 assessed as growth inhibition after 24 hr by broth microdilution method. Conditions: MTCC 2940, 24 h.
For another assay, the system named is Escherichia coli. Nature of the assay: Antibacterial activity against Escherichia coli MTCC 443 assessed as growth inhibition after 24 hr by broth microdilution method. The note with it: MTCC 443, 24 h.
A further assay concerns Bacillus cereus. Nature of the assay: Antibacterial activity against Bacillus cereus MTCC 1305 assessed as growth inhibition after 24 hr by broth microdilution method. The note with it: MTCC 1305, 24 h.
The subject of another assay is Klebsiella pneumoniae. The experiment in a line: Antibacterial activity against Klebsiella pneumoniae MTCC 139 assessed as growth inhibition after 24 hr by broth microdilution method. The note with it: MTCC 139, 24 h.

On to `Nc1ccc(S(=O)(=O)NCc2nc3ccccc3c(=O)n2-c2ccccc2)cc1`, for which the MIC with Candida albicans turned out to be 100 µg/mL (≈ 246 µM); in the assay on Aspergillus niger it was 90 µg/mL (≈ 221 µM); in the assay on Pseudomonas aeruginosa, 85 µg/mL (≈ 209 µM); in the assay on Staphylococcus aureus it was 85 µg/mL (≈ 209 µM); in the assay on Escherichia coli, 80 µg/mL (≈ 197 µM); in the assay with Bacillus cereus, 95 µg/mL (≈ 234 µM). Also, the MIC in the assay with Klebsiella pneumoniae came out at 95 µg/mL (≈ 234 µM).
Take `CC(=O)Nc1ccc(S(=O)(=O)NCc2nc3ccccc3c(=O)n2-c2ccccc2)cc1`: the MIC was determined as 105 µg/mL (≈ 234 µM) in the assay with Candida albicans; 95 µg/mL (≈ 212 µM) in the assay on Aspergillus niger; 125 µg/mL (≈ 279 µM) with Pseudomonas aeruginosa; 95 µg/mL (≈ 212 µM) with Staphylococcus aureus; 110 µg/mL (≈ 245 µM) in the assay on Escherichia coli; 115 µg/mL (≈ 256 µM) in the assay with Bacillus cereus. Besides, in the assay with Klebsiella pneumoniae, the MIC stood at 130 µg/mL (≈ 290 µM).
Take `Cc1ccccc1-n1c(CNS(=O)(=O)c2ccc(N)cc2)nc2ccccc2c1=O`: the MIC was determined as 100 µg/mL (≈ 238 µM) with Candida albicans; 90 µg/mL (≈ 214 µM) with Aspergillus niger; 80 µg/mL (≈ 190 µM) in the assay on Pseudomonas aeruginosa; 90 µg/mL (≈ 214 µM) with Staphylococcus aureus; 70 µg/mL (≈ 166 µM) in the assay with Escherichia coli; 105 µg/mL (≈ 250 µM) with Bacillus cereus. For the same compound, the MIC with Klebsiella pneumoniae was determined as 100 µg/mL (≈ 238 µM).
Turning to `Cc1cccc(-n2c(CNS(=O)(=O)c3ccc(N)cc3)nc3ccccc3c2=O)c1`, the MIC with Candida albicans turned out to be 95 µg/mL (≈ 226 µM); in the assay with Aspergillus niger, 85 µg/mL (≈ 202 µM); in the assay on Pseudomonas aeruginosa, 85 µg/mL (≈ 202 µM); with Staphylococcus aureus, 85 µg/mL (≈ 202 µM); in the assay with Escherichia coli, 65 µg/mL (≈ 155 µM); in the assay on Bacillus cereus, 100 µg/mL (≈ 238 µM). In addition, in the assay with Klebsiella pneumoniae, the MIC worked out at 115 µg/mL (≈ 273 µM).
For `Cc1ccc(-n2c(CNS(=O)(=O)c3ccc(N)cc3)nc3ccccc3c2=O)cc1`, the MIC in the assay on Candida albicans was determined as 80 µg/mL (≈ 190 µM); in the assay with Aspergillus niger it was 75 µg/mL (≈ 178 µM); with Pseudomonas aeruginosa, 70 µg/mL (≈ 166 µM); in the assay on Staphylococcus aureus it was 80 µg/mL (≈ 190 µM); in the assay with Escherichia coli it was 65 µg/mL (≈ 155 µM); with Bacillus cereus, 95 µg/mL (≈ 226 µM). The MIC in the assay with Klebsiella pneumoniae amounted to 90 µg/mL (≈ 214 µM).
Take `CC(=O)Nc1ccc(S(=O)(=O)NCc2nc3ccccc3c(=O)n2-c2ccccc2C)cc1`: the minimal inhibitory concentration (MIC) stood at 90 µg/mL (≈ 195 µM) in the assay on Candida albicans; 80 µg/mL (≈ 173 µM) with Aspergillus niger; 120 µg/mL (≈ 259 µM) with Pseudomonas aeruginosa; 100 µg/mL (≈ 216 µM) in the assay on Staphylococcus aureus; 90 µg/mL (≈ 195 µM) with Escherichia coli; 115 µg/mL (≈ 249 µM) with Bacillus cereus. In addition, the MIC in the assay with Klebsiella pneumoniae came to 125 µg/mL (≈ 270 µM).
Turning to `CC(=O)Nc1ccc(S(=O)(=O)NCc2nc3ccccc3c(=O)n2-c2cccc(C)c2)cc1`, the MIC in the assay on Candida albicans amounted to 80 µg/mL (≈ 173 µM); in the assay on Aspergillus niger, 75 µg/mL (≈ 162 µM); in the assay on Pseudomonas aeruginosa, 115 µg/mL (≈ 249 µM); with Staphylococcus aureus, 95 µg/mL (≈ 205 µM); in the assay on Escherichia coli, 80 µg/mL (≈ 173 µM); in the assay on Bacillus cereus, 105 µg/mL (≈ 227 µM). The MIC in the assay on Klebsiella pneumoniae was found to be 120 µg/mL (≈ 259 µM).
With `CC(=O)Nc1ccc(S(=O)(=O)NCc2nc3ccccc3c(=O)n2-c2ccc(C)cc2)cc1`, the MIC is 85 µg/mL (≈ 184 µM) in the assay on Candida albicans; 70 µg/mL (≈ 151 µM) with Aspergillus niger; 105 µg/mL (≈ 227 µM) in the assay on Pseudomonas aeruginosa; 95 µg/mL (≈ 205 µM) in the assay on Staphylococcus aureus; 85 µg/mL (≈ 184 µM) in the assay on Escherichia coli; 105 µg/mL (≈ 227 µM) with Bacillus cereus. In addition, the MIC with Klebsiella pneumoniae is 115 µg/mL (≈ 249 µM).
In the case of `COc1ccccc1-n1c(CNS(=O)(=O)c2ccc(N)cc2)nc2ccccc2c1=O`, the MIC turned out to be 65 µg/mL (≈ 149 µM) with Candida albicans; 55 µg/mL (≈ 126 µM) in the assay with Aspergillus niger; 80 µg/mL (≈ 183 µM) with Pseudomonas aeruginosa; 85 µg/mL (≈ 195 µM) in the assay on Staphylococcus aureus; 65 µg/mL (≈ 149 µM) in the assay on Escherichia coli; 80 µg/mL (≈ 183 µM) in the assay with Bacillus cereus. Also, the MIC in the assay on Klebsiella pneumoniae is 95 µg/mL (≈ 218 µM).
In the case of `COc1cccc(-n2c(CNS(=O)(=O)c3ccc(N)cc3)nc3ccccc3c2=O)c1`, the MIC with Candida albicans was 50 µg/mL (≈ 115 µM); with Aspergillus niger, 50 µg/mL (≈ 115 µM); with Pseudomonas aeruginosa it was 85 µg/mL (≈ 195 µM); in the assay on Staphylococcus aureus, 80 µg/mL (≈ 183 µM); with Escherichia coli, 60 µg/mL (≈ 137 µM); in the assay on Bacillus cereus it was 75 µg/mL (≈ 172 µM). Moreover, the MIC with Klebsiella pneumoniae was determined as 90 µg/mL (≈ 206 µM).
Take `COc1ccc(-n2c(CNS(=O)(=O)c3ccc(N)cc3)nc3ccccc3c2=O)cc1`: the MIC in the assay with Candida albicans was found to be 55 µg/mL (≈ 126 µM); in the assay with Aspergillus niger, 45 µg/mL (≈ 103 µM); with Pseudomonas aeruginosa, 75 µg/mL (≈ 172 µM); in the assay on Staphylococcus aureus, 60 µg/mL (≈ 137 µM); in the assay with Escherichia coli, 50 µg/mL (≈ 115 µM); in the assay on Bacillus cereus, 70 µg/mL (≈ 160 µM). In the assay with Klebsiella pneumoniae, the MIC worked out at 75 µg/mL (≈ 172 µM).
With `COc1ccccc1-n1c(CNS(=O)(=O)c2ccc(NC(C)=O)cc2)nc2ccccc2c1=O`, the MIC was found to be 80 µg/mL (≈ 167 µM) with Candida albicans; 70 µg/mL (≈ 146 µM) in the assay on Aspergillus niger; 110 µg/mL (≈ 230 µM) with Pseudomonas aeruginosa; 90 µg/mL (≈ 188 µM) with Staphylococcus aureus; 80 µg/mL (≈ 167 µM) with Escherichia coli; 95 µg/mL (≈ 199 µM) with Bacillus cereus. In the assay with Klebsiella pneumoniae, the MIC amounted to 105 µg/mL (≈ 219 µM).
Turning to `Cc1ccccc1-n1c(C)nc2ccccc2c1=O` [METHAQUALONE], the MIC with Candida albicans is 125 µg/mL (≈ 499 µM); with Aspergillus niger it was 90 µg/mL (≈ 360 µM); in the assay on Pseudomonas aeruginosa, 100 µg/mL (≈ 400 µM); with Staphylococcus aureus, 125 µg/mL (≈ 499 µM); in the assay with Escherichia coli, 75 µg/mL (≈ 300 µM); in the assay with Bacillus cereus, 140 µg/mL (≈ 559 µM). Further, the MIC with Klebsiella pneumoniae amounted to 115 µg/mL (≈ 459 µM).
`Nc1ccc(S(N)(=O)=O)cc1` [SULFANILAMIDE]: the MIC in the assay on Candida albicans amounted to 60 µg/mL (≈ 348 µM); in the assay on Aspergillus niger, 50 µg/mL (≈ 290 µM); in the assay on Pseudomonas aeruginosa, 65 µg/mL (≈ 377 µM); with Staphylococcus aureus, 50 µg/mL (≈ 290 µM); in the assay on Escherichia coli, 55 µg/mL (≈ 319 µM); in the assay on Bacillus cereus it was 55 µg/mL (≈ 319 µM). Further, in the assay with Klebsiella pneumoniae, the MIC stood at 80 µg/mL (≈ 465 µM).
